In PMC4481117 (Molecular Pain, 2015):

Key:
[1] = tested on: Mac-1-HEK293 cells; experiment: Transwell migration of Mac-1-HEK293 cells to Dyn A; format: cell-based, Human; conditions: 16 h at 37 °C
Method: (§1) Fig. 6 Migration of Mac-1-expressing cells to Dyn A in a Transwell system. a, Mac-1-expressing HEK 293 cells (100 μl at 3 × 10^6 cell/ml) were added to the upper wells of the transwell chamber and their ability to migrate to different concentrations of Dyn A placed in the lower chamber was analyzed. After 16 hours at 37 °C, migrated cells were fixed, stained, and counted. Data are presented as numbers of migrated cells per field ± S.E. for five random fields per well. The figure is representative of 5 experiments. b, Mac-1-expressing or wild-type HEK 293 cells were added to the upper wells of the transwell chamber and their ability to migrate to 10 μM Dyn A placed in the lower chamber was analyzed as in A. Some Mac-1-HEK293 cells were pretreated with 20 μg/ml of mAbs 44a (anti-αM), IB4 (anti-β2) or OKM1 (non function-blocking anti-αM) or medium alone before addition to the upper wells. ***, medium alone. Data are presented as the number of migrated cells per field ± S.E. for five random fields/well from 3 separate experiments. **, p < 0.01. c, migration of TG-elicited macrophages isolated from the peritoneum of wild-type and Mac-1-deficient mice. Macrophages (3x10^5) were placed in the upper chamber and allowed to migrate to Dyn A (10 μM) in the lower chamber for 90 min. The number of migrated cells was determined as in A. Data are presented as number of migrated cells per field ± S.E. for five random fields per well. The figure is representative of 3 experiments
(§2) Migration assays with wild-type and Mac-1-expressing HEK293 cells and purified macrophages using Transwell inserts (5 μm pore size) were performed as previously described. […] The photographs were taken using a 20x objective and cells in […] and cells were counted. […]

[2] = tested on: αMI-domain (active and nonactive forms); experiment: Solid-phase binding of active and nonactive GST-αMI-domains; conditions: immobilized peptide, 1.5 h at 22 °C, anti-GST detection, 405 nm; means of triplicates, representative of n = 4
Method: Fig. 2 Binding of the active and nonactive αMI-domain conformers to dynorphin. a, the 3D structure of active (PDB ID 1ido) and nonactive (PDB ID 1jlm) αMI-domains are shown as ribbon diagrams. The wells of microtiter plates were coated with different concentrations of dynorphin A (b) and the D100 fragment of fibrinogen (c). The active (●) and nonactive (○) recombinant αMI-domains containing GST fusion parts were added to the wells and incubated for 1.5 h at 22 °C. Bound αMI-domains were detected with an anti-GST mAb followed by an AP-conjugated secondary antibody. Data are the means of triplicate determinations, and error bars represent S.E. Representative experiments in b (n = 4) and c (n = 4) are shown. For multiple comparisons, individual concentrations were tested using t-test with p-value of 0.05 corrected by Bonferroni method and accepting values of 0.007 as significant (**).
Dyn A ([…]), Dyn B ([…]), and control peptide ([…]) were purchased from AnaSpec, Inc (San Jose, CA). […]
Microtiter plates were coated with different concentrations of the fibrinogen D100 fragment or Dyn A overnight at 4 °C and post-coated with 3 % BSA for 1 h. […] After washing, goat anti-mouse IgG conjugated to alkaline phosphatase was added for 1 h and the binding of the αMI-domains was detected by reaction with p-nitrophenyl phosphate measuring the absorbance at 405 nm. […]

[3] = tested on: wild-type HEK293 cells; experiment: Transwell migration of wild-type HEK293 cells to Dyn A; format: cell-based, Human; conditions: 16 h at 37 °C
Method: as §1, with “Data are presented as the number of migrated cells per field ± S.E. for five random fields/well from 3 separate experiments. **, p < 0.01. c, migration of TG-elicited macrophages isolated from the peritoneum of wild-type and Mac-1-deficient mice. Macrophages (3x10^5) were placed in the upper chamber and allowed to migrate to Dyn A (10 μM) in the lower chamber for 90 min.” left out, “The figure is representative of 3 experiments” left out
as §2

CC[C@H](C)[C@H](NC(=O)[C@H](CCCNC(=N)N)NC(=O)[C@H](CCCNC(=N)N)NC(=O)[C@H](CC(C)C)NC(=O)[C@H](Cc1ccccc1)NC(=O)CNC(=O)CNC(=O)[C@@H](N)Cc1ccc(O)cc1)C(=O)N[C@@H](CCCNC(=N)N)C(=O)N1CCC[C@H]1C(=O)N[C@@H](CCCCN)C(=O)N[C@@H](CC(C)C)C(=O)N[C@@H](CCCCN)C(=O)N[C@@H](Cc1c[nH]c2ccccc12)C(=O)N[C@@H](CC(=O)O)C(=O)N[C@@H](CC(N)=O)C(=O)N[C@@H](CCC(N)=O)C(=O)O [Dyn A]
Concentration at which migratory response reaches saturation ([1]; Transwell 5 μm): 5 µM | Lowest concentration inducing migration ([1]; Transwell 5 μm): 0.5 to 1 µM | Migration of Mac-1-HEK293 cells (in words) ([1]; Transwell): strong concentration-dependent migratory response | Difference in binding of active and nonactive αMI-domains [2]: No significant difference in binding of active and nonactive αMI-domains | Migration of wild-type HEK293 cells (in words) [3]: did not migrate
